Test results as given in patent US12491220B2, “Compositions containing indole-derived metabolites and methods of use thereof” (Imvela Corp., priority 2024, dated 2025).

What was measured:
[1] = target: T1, AhR (Homo sapiens, UniProt P35869); assay: AhR activation in human cell line expressing AhR, in vitro luminescence (Example 1); type: cell-based; conditions: 200 PM, FIG. 5, normalized to methylcholanthrene
T1 sequence (P35869 11-848): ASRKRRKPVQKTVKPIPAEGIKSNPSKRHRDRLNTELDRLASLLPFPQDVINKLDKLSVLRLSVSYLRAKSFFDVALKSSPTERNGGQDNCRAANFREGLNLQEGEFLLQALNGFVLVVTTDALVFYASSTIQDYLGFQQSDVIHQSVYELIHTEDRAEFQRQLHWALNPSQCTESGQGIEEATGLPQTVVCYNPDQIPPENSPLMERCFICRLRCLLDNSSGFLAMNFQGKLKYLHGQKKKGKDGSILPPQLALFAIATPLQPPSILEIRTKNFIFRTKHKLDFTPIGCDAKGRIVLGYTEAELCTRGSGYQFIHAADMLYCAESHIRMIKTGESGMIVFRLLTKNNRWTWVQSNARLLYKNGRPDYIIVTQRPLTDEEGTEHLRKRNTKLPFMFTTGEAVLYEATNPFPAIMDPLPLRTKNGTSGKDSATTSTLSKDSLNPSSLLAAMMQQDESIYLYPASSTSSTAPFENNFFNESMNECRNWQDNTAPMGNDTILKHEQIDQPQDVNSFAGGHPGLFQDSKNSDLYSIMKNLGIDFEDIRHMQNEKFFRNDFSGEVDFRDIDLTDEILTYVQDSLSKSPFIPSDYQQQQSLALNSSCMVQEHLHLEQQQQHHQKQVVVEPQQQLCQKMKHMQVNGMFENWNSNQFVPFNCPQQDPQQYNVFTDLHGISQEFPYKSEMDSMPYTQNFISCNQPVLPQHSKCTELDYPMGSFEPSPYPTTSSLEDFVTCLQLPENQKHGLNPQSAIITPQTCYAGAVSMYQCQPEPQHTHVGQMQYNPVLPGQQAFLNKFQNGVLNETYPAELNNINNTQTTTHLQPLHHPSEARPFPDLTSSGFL
Protocol: (§1) The utility of ILA and IAld in multiple host was validated by an in vitro assay. Human or canine cell lines expressing AhR were exposed to ILA or IAld at […], and AhR activation was assayed using in vitro luminescence.

[2] = target: T2, AhR (Canis lupus familiaris, UniProt A0A8I3RSX6); assay: AhR activation in canine cell line expressing AhR, in vitro luminescence (Example 1); type: cell-based; conditions: 200 PM, FIG. 5, normalized to methylcholanthrene
T2 sequence (A0A8I3RSX6 1-853): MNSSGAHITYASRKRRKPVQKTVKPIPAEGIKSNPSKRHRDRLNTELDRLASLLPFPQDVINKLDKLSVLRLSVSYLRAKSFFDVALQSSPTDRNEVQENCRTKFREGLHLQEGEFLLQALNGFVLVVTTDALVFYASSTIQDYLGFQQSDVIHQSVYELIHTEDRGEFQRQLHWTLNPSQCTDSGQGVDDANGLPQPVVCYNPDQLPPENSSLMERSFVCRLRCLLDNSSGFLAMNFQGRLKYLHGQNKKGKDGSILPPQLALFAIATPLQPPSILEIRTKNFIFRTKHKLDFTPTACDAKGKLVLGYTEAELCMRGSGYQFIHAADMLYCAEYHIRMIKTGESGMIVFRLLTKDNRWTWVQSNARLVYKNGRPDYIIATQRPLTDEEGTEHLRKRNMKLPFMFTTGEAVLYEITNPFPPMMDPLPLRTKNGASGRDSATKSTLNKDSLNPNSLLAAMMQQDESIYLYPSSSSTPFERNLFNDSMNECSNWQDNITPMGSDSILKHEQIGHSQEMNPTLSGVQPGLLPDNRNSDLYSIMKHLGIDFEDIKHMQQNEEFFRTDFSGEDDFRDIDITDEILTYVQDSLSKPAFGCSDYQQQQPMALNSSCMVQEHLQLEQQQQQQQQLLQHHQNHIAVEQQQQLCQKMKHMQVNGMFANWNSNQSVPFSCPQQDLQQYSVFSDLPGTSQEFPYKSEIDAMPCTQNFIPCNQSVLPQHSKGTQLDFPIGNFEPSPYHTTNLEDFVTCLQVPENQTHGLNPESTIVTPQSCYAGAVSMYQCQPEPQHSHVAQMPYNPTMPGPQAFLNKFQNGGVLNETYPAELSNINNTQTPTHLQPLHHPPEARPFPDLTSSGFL
Protocol: as §1

Row | SMILES | AhR activation [1] | AhR activation [2]
1 | O=C(O)C(O)Cc1c[nH]c2ccccc12 (stereo not shown) [ILA, indole-3-lactic acid] | AhR activation was observed | AhR activation was observed
2 | O=Cc1c[nH]c2ccccc12 [IAld, indole-3-carboxaldehyde] | AhR activation was observed | AhR activation was observed
